Data on 22 compounds can be found in PubChem BioAssay (NCI).

Each structure is given as a SMILES string. Several values for one entry are separate records, joined by “and”; a condition that tells them apart may be missing. Equal values may be shown once.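 Method: 48-hour compound exposure of cells in 96-well plates, five concentrations, linear interpolation of endpoints. GI50 = concentration required for 50% inhibition of growth. TGI denotes the concentration required for complete inhibition of growth.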

Some test systems named below: HOP-92 NSCLC; RXF 393 renal; RPMI-8226 leukemia; HCT-15 colon; A549 NSCLC; NCI-H460 lung; M14 melanoma; HL-60(TB) leukemia; UO-31 renal; SNB-19 CNS.
Common to all, as to test: NCI anticancer screen, dose series, 48 h

Turning to `NC(=O)CCCC(NCc1c2ccccc2nc2ccccc12)C(=O)O` (centres undefined), the TGI with HOP-92 NSCLC was 85.7 µM; with RXF 393 renal it was above 100 µM; in the assay on RPMI-8226 leukemia, 93.6 µM; in the assay on HCT-15 colon, above 100 µM; with A549 NSCLC it was above 100 µM; with NCI-H460 lung, above 100 µM. The figures for the TGI with M14 melanoma and with HL-60(TB) leukemia were above 100 µM and 62.2 µM, respectively.

Consider `CCCCCCCSc1nc2c(C(=O)OCC)ncn2c2ccccc12`, for which the TGI in the assay on HOP-92 NSCLC, in the assay on RXF 393 renal, with RPMI-8226 leukemia, with HCT-15 colon, in the assay with UO-31 renal and in the assay on NCI-H460 lung was above 100 µM each time. Moreover, the TGI with M14 melanoma and in the assay on HL-60(TB) leukemia was above 100 µM throughout.

For `N#CC(c1ccccc1)c1nc2ccc(=N)cc-2n(O)c1C(C#N)c1ccccc1` (centres undefined), the TGI in the assay on RXF 393 renal, in the assay on HCT-15 colon, with UO-31 renal, in the assay on A549 NSCLC, in the assay on NCI-H460 lung and in the assay on M14 melanoma was above 100 µM throughout. Moreover, the TGI in the assay with HL-60(TB) leukemia and in the assay on SNB-19 CNS was above 100 µM in each case.

Regarding `COC(=O)C1=CSC2(S1)C(C(=O)OC)=CSc1c2ssc1=Nc1ccccc1` (centres undefined), the TGI in the assay on RXF 393 renal was 6.12 µM; in the assay on RPMI-8226 leukemia, 2.87 µM; in the assay with UO-31 renal it was above 100 µM; with A549 NSCLC it was 14.6 µM; with NCI-H460 lung it was above 100 µM; in the assay on M14 melanoma, 5.13 µM. In addition, the TGI in the assay on SNB-19 CNS was 8.71 µM.

For `O=c1oc2ccccc2c2c(=O)c3ccc(OC/C(=N/O)c4ccc(Cl)cc4)cc3oc12`, the TGI stood at 25.1 µM in the assay with HOP-92 NSCLC; 8.06 µM in the assay on RXF 393 renal; 33.1 µM with RPMI-8226 leukemia; 24.5 µM in the assay with HCT-15 colon; 30.8 µM in the assay on UO-31 renal; 32 µM with A549 NSCLC. Moreover, the TGI worked out at 33 µM in the assay with NCI-H460 lung, 34 µM with M14 melanoma, 28.4 µM in the assay on HL-60(TB) leukemia and 33.1 µM in the assay with SNB-19 CNS.

For `CN(C)CCNc1nc(-c2ccc3ccccc3c2)nc2nc[nH]c12`, the TGI was 24.2 µM in the assay with RXF 393 renal; above 100 µM with RPMI-8226 leukemia; 18.3 µM in the assay with HCT-15 colon; 12.9 µM in the assay on UO-31 renal; 26.3 µM in the assay on A549 NSCLC; 15.6 µM with NCI-H460 lung. Moreover, the results for the TGI in the assay with M14 melanoma, in the assay with HL-60(TB) leukemia and with SNB-19 CNS were 23.6 µM, above 100 µM and 28.1 µM, respectively.

With `Cc1ccc(S(=O)(=O)NCCSCCNS(=O)(=O)c2ccc(C)cc2)cc1`, the TGI in the assay with HOP-92 NSCLC, with RXF 393 renal, in the assay with HCT-15 colon, in the assay on UO-31 renal, in the assay with A549 NSCLC and in the assay with NCI-H460 lung was above 100 µM throughout. Moreover, the TGI in the assay on M14 melanoma and in the assay with SNB-19 CNS was above 100 µM in each case.

Consider `Cc1ccc(Oc2ccc(C)cc2[N+](=O)[O-])cc1`, for which the TGI is above 100 µM in the assay with HOP-92 NSCLC; 92.7 µM with RXF 393 renal; above 100 µM in the assay with RPMI-8226 leukemia; above 100 µM with HCT-15 colon; above 100 µM with UO-31 renal; above 100 µM with A549 NSCLC. The TGI is above 100 µM with NCI-H460 lung, above 100 µM with M14 melanoma and 79.7 µM with HL-60(TB) leukemia.

As for `CC(=O)C(O)N1C(=O)C=CC1=O` (centres undefined), the GI50 is 13000 µM in the assay on RXF 393 renal, 12.8 µM in the assay with RPMI-8226 leukemia and 2260 µM in the assay with UO-31 renal. The TGI in the assay with RPMI-8226 leukemia is 35 µM and 5.64 µM; in the assay on A549 NSCLC it was 16.4 µM and 35.9 µM; with NCI-H460 lung it was 25 µM and 34.8 µM and 33.1 µM.

Regarding `CC(=O)Nc1ccccc1SCCSSCCSc1ccccc1NC(C)=O`, the TGI in the assay with HOP-92 NSCLC is 64.4 µM; with RXF 393 renal it was above 100 µM; in the assay on RPMI-8226 leukemia, 42.2 µM; with HCT-15 colon, 42.2 µM; in the assay on UO-31 renal, 35.8 µM; in the assay with A549 NSCLC it was 69.8 µM. In addition, the TGI in the assay on NCI-H460 lung was 68.6 µM; in the assay with M14 melanoma, above 100 µM; with HL-60(TB) leukemia it was 44.8 µM; in the assay on SNB-19 CNS it was 36.7 µM.

Turning to `CN(C)c1ccc(/C=N\NC(=O)CSCC(=O)N/N=C/c2ccc(N(C)C)cc2)cc1`, the TGI with HOP-92 NSCLC is above 100 µM; in the assay with RXF 393 renal it was 81.5 µM; in the assay on RPMI-8226 leukemia, above 100 µM; in the assay with HCT-15 colon it was 53.2 µM; with UO-31 renal, above 100 µM; with A549 NSCLC it was above 100 µM. Further, the TGI in the assay on NCI-H460 lung, in the assay with M14 melanoma, in the assay on HL-60(TB) leukemia and in the assay on SNB-19 CNS was above 100 µM in each case.

As to `O=c1ccc2cc(O)c(O)cc2o1`, the TGI with HOP-92 NSCLC, in the assay with RXF 393 renal, in the assay with RPMI-8226 leukemia, in the assay with HCT-15 colon, with UO-31 renal and with A549 NSCLC was above 100 µM throughout. The TGI in the assay on NCI-H460 lung, in the assay with M14 melanoma, with HL-60(TB) leukemia and in the assay on SNB-19 CNS was above 100 µM throughout.

`NC(=O)NN=C(CS)CS`: the TGI was 38.6 µM with HOP-92 NSCLC; above 74.4 µM with RXF 393 renal; above 100 µM in the assay on RPMI-8226 leukemia; 51.9 µM in the assay with HCT-15 colon; 54.4 µM in the assay with UO-31 renal; 40.7 µM with A549 NSCLC. Besides, the TGI was determined as 59 µM with NCI-H460 lung, 2.52 µM in the assay with HL-60(TB) leukemia and 52.3 µM with SNB-19 CNS.

Turning to `O=C(O[C@H]1[C@@H](O)[C@H](n2cnc3c(Cl)ncnc32)O[C@@H]1COC(c1ccccc1)(c1ccccc1)c1ccccc1)c1ccccc1`, the TGI is 44.8 µM with HOP-92 NSCLC; 48.1 µM in the assay on RXF 393 renal; 5.39 µM with RPMI-8226 leukemia; above 100 µM in the assay on HCT-15 colon; 2.73 µM in the assay on UO-31 renal; above 100 µM in the assay with A549 NSCLC. For the same compound, the TGI was 64.9 µM in the assay on NCI-H460 lung, above 100 µM in the assay with M14 melanoma, 40.7 µM in the assay with HL-60(TB) leukemia and above 100 µM in the assay with SNB-19 CNS.

Consider `CCCN(C(=O)c1c(Cl)nnc(Cl)c1C(=O)c1cc(Cl)nnc1Cl)c1cc(Cl)nnc1Cl`, for which the TGI in the assay on HOP-92 NSCLC was 36.9 µM; in the assay with RXF 393 renal, 8.49 µM; in the assay on RPMI-8226 leukemia, 17.1 µM; in the assay on HCT-15 colon, 18.5 µM; with UO-31 renal, 33.2 µM; with A549 NSCLC, above 100 µM. Moreover, the TGI amounted to 70.4 µM in the assay with NCI-H460 lung, 40.8 µM in the assay on M14 melanoma, 7.16 µM in the assay on HL-60(TB) leukemia and 87.7 µM in the assay with SNB-19 CNS.

For `Cc1sc(Cc2ccccc2)nc1-c1ccc(N)cc1`, the TGI is 43.4 µM with HOP-92 NSCLC; 71.4 µM with RPMI-8226 leukemia; 46.9 µM in the assay with HCT-15 colon; above 100 µM in the assay with UO-31 renal; above 100 µM with A549 NSCLC; 50.2 µM with NCI-H460 lung. Also, the figures for the TGI in the assay on M14 melanoma, with HL-60(TB) leukemia and with SNB-19 CNS were 43.7 µM, above 100 µM and above 100 µM, respectively.

Regarding `CCOC(=O)/C(Cl)=C(\C)Nc1nc2c(ccc3ccccc32)s1`, the TGI is above 100 µM in the assay on HCT-15 colon; above 100 µM in the assay on UO-31 renal; 69.3 µM in the assay on NCI-H460 lung; above 100 µM in the assay on M14 melanoma; above 100 µM in the assay on HL-60(TB) leukemia; above 100 µM in the assay on SNB-19 CNS.

Take `Cc1cc(NCc2cc(Nc3ccnc4cc(Cl)ccc34)ccc2F)nc(N2CCCC2)n1`: the GI50 with HOP-92 NSCLC is 0.763 µM; in the assay with RXF 393 renal it was 1.45 µM; with UO-31 renal, 1.27 µM; with A549 NSCLC it was 2.22 µM; in the assay with NCI-H460 lung, 1.35 µM; in the assay with SNB-19 CNS it was 2.82 µM. Also, the TGI worked out at 2.61 µM with HOP-92 NSCLC; 2.99 µM in the assay on RXF 393 renal; 2.86 µM in the assay with UO-31 renal; 6.02 µM in the assay with A549 NSCLC; 2.96 µM in the assay with NCI-H460 lung; 10.1 µM in the assay on SNB-19 CNS.

With `CC1=NN(c2ccccc2)C(=O)/C1=C/c1ccc(O)cc1`, the TGI with HOP-92 NSCLC, in the assay with RXF 393 renal, with RPMI-8226 leukemia, in the assay with HCT-15 colon, in the assay with A549 NSCLC and in the assay with NCI-H460 lung was above 100 µM in each case. Also, the TGI in the assay with M14 melanoma, in the assay with HL-60(TB) leukemia and with SNB-19 CNS was above 100 µM in each case.

With `COc1ccc(-c2c3c(nc4nc(SCCc5ccccc5)nc(N)c24)CCCC3)cc1OC`, the TGI with RXF 393 renal, with RPMI-8226 leukemia, in the assay with HCT-15 colon, in the assay on UO-31 renal, with A549 NSCLC and in the assay on NCI-H460 lung was above 100 µM throughout. For the same compound, the TGI in the assay on M14 melanoma, in the assay on HL-60(TB) leukemia and with SNB-19 CNS was above 100 µM throughout.

With `CCCCCCNC(=O)c1cnc(Cl)cn1`, the TGI with HOP-92 NSCLC is above 100 µM; in the assay with RPMI-8226 leukemia, above 100 µM; in the assay with HCT-15 colon, 7.25 µM; in the assay on UO-31 renal it was 3.24 µM; with A549 NSCLC, 42.3 µM; in the assay with NCI-H460 lung, 37.3 µM. For the same compound, the TGI in the assay with M14 melanoma amounted to 26 µM; with HL-60(TB) leukemia it was 47.8 µM; in the assay on SNB-19 CNS it was 43.7 µM.

`CN(C)CCCNc1ccc2ncn3c4ccccc4c(=O)c1c23`: the TGI in the assay on HOP-92 NSCLC came out at 59.5 µM; in the assay with RPMI-8226 leukemia, 26.9 µM; in the assay with HCT-15 colon it was 85.6 µM; in the assay with UO-31 renal it was 52.3 µM; with NCI-H460 lung, 14.5 µM; in the assay on M14 melanoma, 41.6 µM. The TGI in the assay with HL-60(TB) leukemia was 21.2 µM; with SNB-19 CNS, above 100 µM.
